The record followed here is patent US9469615B2, “Quinoxalines and AZA-quinoxalines as CRTH2 receptor modulators” (Merck Sharp & Dohme Corp., priority 2010, dated 2016).

The structures appear in SMILES notation.

The assay concerns the target T1, hCRTH2 (Homo sapiens, UniProt Q9Y5Y4).
T1 construct: expressed in transfected cells; host or cells: HEK (human embryonic kidney) cells expressing hCRTH2; membrane preparation
T1 sequence (Q9Y5Y4 1-395): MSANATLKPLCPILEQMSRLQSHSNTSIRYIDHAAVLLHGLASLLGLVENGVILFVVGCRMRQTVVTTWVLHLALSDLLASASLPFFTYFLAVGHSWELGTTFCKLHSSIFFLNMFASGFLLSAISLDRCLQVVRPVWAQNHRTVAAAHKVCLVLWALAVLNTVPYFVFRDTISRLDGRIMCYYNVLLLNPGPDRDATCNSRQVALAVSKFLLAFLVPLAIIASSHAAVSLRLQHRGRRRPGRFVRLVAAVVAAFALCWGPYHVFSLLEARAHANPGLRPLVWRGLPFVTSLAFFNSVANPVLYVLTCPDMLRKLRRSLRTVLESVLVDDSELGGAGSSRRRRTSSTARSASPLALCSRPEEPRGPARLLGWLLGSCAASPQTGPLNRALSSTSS
Put plainly: Radioligand binding assay ([3H]PGD2 competition, HEK-hCRTH2 membranes). The settings on record: [3H]PGD2 competition, Table B. The procedure, abridged:
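Using membranes of an HEK line stably carrying hCRTH2, ligands were tested against [3H]PGD2 (3.0 nM) in pH 7.4 Tris buffer containing 2 mM MnCl2 and 1 mM EDTA. After one hour at room temperature, filters were washed cold and counted.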
As to `COc1ccc2c(c1)CCCC2NC(=O)c1ccc2nc(-c3ccc(Cl)cc3)c(CCCCC(=O)O)nc2c1` (centres unmarked) [compound 312, 5-(3-(4-chlorophenyl)-7((6-methoxy-1,2,3,4-tetrahydronaphthalen-1-yl)carbamoyl)quinoxalin-2-yl)pentanoic acid], the Ki – broadly, the dissociation constant of the complex between target and ligand, obtained from inhibition or displacement – was in the range of 2.1 to 20 nM. Take `O=C(O)CCCCc1nc2cc(C(=O)N[C@H]3COc4cc(F)ccc43)ccc2nc1-c1ccc(Cl)cc1` [compound 313, (R)-5-(3-(4-chlorophenyl)-7-((6-fluoro-2,3-dihydrobenzofuran-3-yl)carbamoyl)quinoxalin-2-yl)pentanoic acid]: the Ki was 2.1 to 20 nM. Then `O=C(O)CCCCc1nc2cc(C(=O)N[C@@H]3COc4cc(F)ccc43)ccc2nc1-c1ccc(Cl)cc1` [compound 314, (S)-5-(3-(4-chlorophenyl)-7-((6-fluoro-2,3-dihydrobenzofuran-3-yl)carbamoyl)quinoxalin-2-yl)pentanoic acid], with 2.1 to 20 nM; and `CN1C(=O)CC(NC(=O)c2ccc3nc(-c4ccc(Cl)cc4)c(CCCCC(=O)O)nc3c2)c2ccccc21` (centres unmarked) [compound 315, 5-(3-(4-chlorophenyl)-7-((1-methyl-2-oxo-1,2,3,4-tetrahydroquinolin-4-yl)carbamoyl)quinoxalin-2-yl)pentanoic acid], with 2.1 to 20 nM; and `O=C(O)CCCCc1nc2cc(C(=O)N3CCC(N4Cc5ccccc5C4=O)CC3)ccc2nc1-c1ccc(Cl)cc1` [compound 316, 5-(3-(4-chlorophenyl)-7-(4-(1-oxoisoindolin-2-yl)piperidine-1-carbonyl)quinoxalin-2-yl)pentanoic acid], with 2.1 to 20 nM.

`O=C(O)CCCCc1nc2cc(C(=O)NCC3(c4ccc(OC(F)(F)F)cc4)CC3)ccc2nc1-c1ccc(Cl)cc1` [compound 317, 5-(3-(4-chlorophenyl)-7-(((1-(4-(trifluoromethoxy)phenyl)cyclopropyl)methyl)carbamoyl)quinoxalin-2-yl)pentanoic acid] showed a Ki of 2.1 to 20 nM. In turn, `O=C(O)CCCCc1nc2cc(C(=O)NCC3(c4ccc(F)cc4)CC3)ccc2nc1-c1ccc(Cl)cc1` [compound 318, 5-(3-(4-chlorophenyl)-7-(((1-(4-fluorophenyl)cyclopropyl)methyl)carbamoyl)quinoxalin-2-yl)pentanoic acid] yielded a Ki of 2.1 to 20 nM. Then `O=C(O)CCCCc1nc2cc(C(=O)NC3NC(=O)c4ccccc43)ccc2nc1-c1ccc(Cl)cc1` (centres unmarked) [compound 319, 5-(3-(4-chlorophenyl)-7((3-oxoisoindolin-1-yl)carbamoyl)quinoxalin-2-yl)pentanoic acid], with 2.1 to 20 nM; and `O=C(O)CCCCc1nc2cc(C(=O)N[C@@H]3CCS(=O)(=O)c4ccccc43)ccc2nc1-c1ccc(Cl)cc1` [compound 320, (R)-5-(3-(4-chlorophenyl)-7-((1,1-dioxidothiochroman-4-yl)carbamoyl)quinoxalin-2-yl)pentanoic acid], with 2.1 to 20 nM.

The compound `C[C@H](NC(=O)c1ccc2nc(-c3ccc(Cl)cc3)c(CCCCC(=O)O)nc2c1)c1cncc2ccccc12` [compound 321, (S)-5-(3-(4-chlorophenyl)-7-((1-(isoquinolin-4-yl)ethyl)carbamoyl)quinoxalin-2-yl)pentanoic acid] returned a Ki of 2.1 to 20 nM. With `C[C@H](NC(=O)c1ccc2nc(-c3ccc(Cl)cc3)c(CCCCC(=O)O)nc2c1)c1cccc2ncccc12` [compound 322, (S)-5-(3-(4-chlorophenyl)-7-((1-(quinolin-5-yl)ethyl)carbamoyl)quinoxalin-2-yl)pentanoic acid], the inhibition constant Ki lay within 2.1 to 20 nM. As for `O=C(O)CCCCc1nc2cc(C(=O)N3CC(OCc4ccccc4)C3)ccc2nc1-c1ccc(Cl)cc1` [compound 323, 5-(7-(3-(benzyloxy)azetidine-1-carbonyl)-3-(4-chlorophenyl)quinoxalin-2-yl)pentanoic acid], the Ki fell in the range of 2.1 to 20 nM. Then `O=C(O)CCCCc1nc2cc(C(=O)N3CC(n4cccn4)C3)ccc2nc1-c1ccc(Cl)cc1` [compound 324, 5-(7-(3-(1H-pyrazol-1-yl)azetidine-1-carbonyl)-3-(4-chlorophenyl)quinoxalin-2-yl)pentanoic acid], with 2.1 to 20 nM; and `O=C(O)CCCCc1nc2cc(C(=O)N3CC(n4ccnc4)C3)ccc2nc1-c1ccc(Cl)cc1` [compound 325, 5-(7-(3-(1H-imidazol-1-yl)azetidine-1-carbonyl)-3-(4-chlorophenyl)quinoxalin-2-yl)pentanoic acid], with 20.1 to 200 nM; and `O=C(O)CCCCc1nc2cc(C(=O)N3CC(c4nc(-c5ccncc5)no4)C3)ccc2nc1-c1ccc(Cl)cc1` [compound 326, 5-(3-(4-chlorophenyl)-7-(3-(3-(pyridin-4-yl)-1,2,4-oxadiazol-5-yl)azetidine-1-carbonyl)quinoxalin-2-yl)pentanoic acid], with 2.1 to 20 nM. Then `O=C(O)CCCCc1nc2cc(C(=O)N3CC(n4cnnc4)C3)ccc2nc1-c1ccc(Cl)cc1` [compound 327, 5-(7-(3-(4H-1,2,4-triazol-4-yl)azetidine-l-carbonyl)-3-(4-chlorophenyl)quinoxalin-2-yl)pentanoic acid], with 20.1 to 200 nM.

`O=C(O)CCCCc1nc2cc(C(=O)N3CC(F)(c4ccccc4)C3)ccc2nc1-c1ccc(Cl)cc1` [compound 328, 5-(3-(4-chlorophenyl)-7-(3-fluoro-3-phenylazetidine-1-carbonyl)quinoxalin-2-yl)pentanoic acid] yielded a Ki of 2.1 to 20 nM. For `O=C(O)CCCCc1nc2cc(C(=O)N3CC(Oc4ccccn4)C3)ccc2nc1-c1ccc(Cl)cc1` [compound 329, 5-(3-(4-chlorophenyl)-7-(3-(pyridin-2-yloxy)azetidine-1-carbonyl)quinoxalin-2-yl)pentanoic acid], the Ki was in the range of 2.1 to 20 nM. The compound `CN(C)c1cccc(-c2nc3ccc(C(=O)N[C@@H]4CCCc5ccccc54)cc3nc2CCCCC(=O)O)c1` [compound 330, (R)-5-(3-(3-(dimethylamino)phenyl)-7-((1,2,3,4-tetrahydronaphthalen-1-yl)carbamoyl)quinoxalin-2-yl)pentanoic acid] yielded a Ki of 2.1 to 20 nM. Then `O=C(O)CCCCc1nc2cc(C(=O)NC3CSc4ccccc43)ccc2nc1-c1ccc(Cl)cc1` (centres unmarked) [compound 331, 5-(3-(4-chlorophenyl)-7-((2,3-dihydrobenzo[b]thiophen-3-yl)carbamoyl)quinoxalin-2-yl)pentanoic acid], with 2.1 to 20 nM. Then `N#Cc1ccc2c(c1)OCC[C@H]2NC(=O)c1ccc2nc(-c3ccc(Cl)cc3)c(CCCCC(=O)O)nc2c1` [compound 332, (R)-5-(3-(4-chlorophenyl)-7-((7-cyanochroman-4-yl)carbamoyl)quinoxalin-2-yl)pentanoic acid], with 2.1 to 20 nM. The compound `N#Cc1ccc2c(c1)OCC[C@@H]2NC(=O)c1ccc2nc(-c3ccc(Cl)cc3)c(CCCCC(=O)O)nc2c1` [compound 333, (S)-5-(3-(4-chlorophenyl)-7-((7-cyanochroman-4-yl)carbamoyl)quinoxalin-2-yl)pentanoic acid.] displayed a Ki of 2.1 to 20 nM.

`O=C(O)CCCCc1nc2cc(C(=O)N[C@@H]3CCOc4cc(Cl)ccc43)ccc2nc1-c1ccc(Cl)cc1` [compound 334, (R)-5-(7-((7-chlorochroman-4-yl)carbamoyl)-3-(4-chlorophenyl)quinoxalin-2-yl)pentanoic acid] displayed a Ki of 2.1 to 20 nM.
